# Tests used:
# Experiment in all cases: Test B pre-/postemergence plant response
# Format in all cases: in vivo
# [1] = test system: ragweed (common ragweed, Ambrosia elatior)
# Summary of the method: (§1)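 Each species received compound formulated in non-phytotoxic solvent with surfactant, either at planting into a loam and sand blend or as a foliar spray once plants reached 2 to 18 cm in peat-based medium. Plants stayed in the greenhouse 13 to 15 days before visual evaluation against controls, scored 0 (no effect) to 100 (complete control).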
# [2] = test system: Italian ryegrass (Lolium multiflorum)
# Summary of the method: as §1
# [3] = test system: johnsongrass (Sorghum halepense)
# Summary of the method: as §1
# [4] = test system: goosegrass (Eleusine indica)
# Summary of the method: as §1
# [5] = test system: green foxtail (Setaria viridis)
# Summary of the method: as §1
# [6] = test system: large crabgrass (Digitaria sanguinalis)
# Summary of the method: as §1
# [7] = test system: woolly cupgrass (Eriochloa villosa)
# Summary of the method: as §1
# [8] = test system: morningglory (Ipomoea coccinea)
# Summary of the method: as §1
# [9] = test system: downy bromegrass (Bromus tectorum)
# Summary of the method: as §1
# [10] = test system: bermudagrass (Cynodon dactylon)
# Summary of the method: as §1
# [11] = test system: yellow nutsedge (Cyperus esculentus)
# Summary of the method: as §1
# [12] = test system: giant foxtail (Setaria faberii)
# Summary of the method: as §1
# [13] = test system: corn (Zea mays)
# Summary of the method: as §1
# [14] = Postemergence, 31 g ai/ha, 0 to 100 scale (0 no effect, 100 complete control)
# [15] = Postemergence, 62 g ai/ha, scale 0 to 100 (0 no effect, 100 complete control)
# [16] = Postemergence, 125 g ai/ha, scale 0 (no effect) to 100 (complete control), 13 to 15 days
# [17] = Postemergence, 250 g ai/ha, scale 0 to 100 (0 no effect, 100 complete control), 13 to 15 days
# [18] = Preemergence, 31 g ai/ha, scale 0 to 100 (0 no effect, 100 complete control)
# [19] = Preemergence, 62 g ai/ha, scale 0 to 100 (0 no effect, 100 complete control)
# [20] = Preemergence, 125 g ai/ha, scale 0 to 100, 0 no effect, 100 complete control
# [21] = Preemergence, 250 g ai/ha, 0 to 100 scale
# [22] = 31 g ai/ha, postemergence, scale 0 to 100, 0 is no effect, 100 is complete control
# [23] = 62 g ai/ha, postemergence, 0 is no effect, 100 is complete control, 13 to 15 days
# [24] = Postemergence, 250 g ai/ha, scale 0 to 100 (0 no effect, 100 complete control)
# [25] = Postemergence, 125 g ai/ha, visual rating after 13 to 15 days, scale 0 (no effect) to 100 (complete control)
smiles,measurement,setting,value
CCCCn1c(-c2cc(F)cc(F)c2)ncc(C(=O)C2=C(O)C3CCC(C3)C2=O)c1=O (stereo not shown) [Compound 245],"Plant response rating, Ragweed",[1]; [14],95
same,"Plant response rating, Ragweed",[1]; [15],98
same,"Plant response rating, Ragweed",[1]; [16],100
same,"Plant response rating, Ragweed",[1]; [17],100
same,"Plant response rating, Ragweed",[1]; [18],75
same,"Plant response rating, Ragweed",[1]; [19],85
same,"Plant response rating, Ragweed",[1]; [20],100
same,Ragweed plant response rating,[1]; [21],100
same,"Plant response rating, Ryegrass, Italian",[2]; [14],40
same,"Plant response rating, Ryegrass, Italian",[2]; [15],50
same,"Plant response rating, Ryegrass, Italian",[2]; [16],70
same,"Plant response rating, Ryegrass, Italian",[2]; [17],85
same,"Plant response rating, Ryegrass, Italian",[2]; [18],0
same,"Plant response rating, Ryegrass, Italian",[2]; [19],0
same,"Plant response rating, Ryegrass, Italian",[2]; [20],0
same,"Ryegrass, Italian plant response rating",[2]; [21],40
same,"Plant response rating, Johnsongrass",[3]; [14],100
same,"Plant response rating, Johnsongrass",[3]; [15],100
same,"Plant response rating, Johnsongrass",[3]; [16],100
same,"Plant response rating, Johnsongrass",[3]; [17],100
same,"Plant response rating, Johnsongrass",[3]; [18],65
same,"Plant response rating, Johnsongrass",[3]; [19],75
same,"Plant response rating, Johnsongrass",[3]; [20],80
same,Johnsongrass plant response rating,[3]; [21],100
same,"Plant response rating, Goosegrass",[4]; [14],98
same,"Plant response rating, Goosegrass",[4]; [15],98
same,"Plant response rating, Goosegrass",[4]; [16],100
same,"Plant response rating, Goosegrass",[4]; [17],100
same,"Plant response rating, Goosegrass",[4]; [18],95
same,"Plant response rating, Goosegrass",[4]; [19],100
same,"Plant response rating, Goosegrass",[4]; [20],100
same,Goosegrass plant response rating,[4]; [21],100
same,"Plant response rating, Foxtail, Green",[5]; [14],85
same,"Plant response rating, Foxtail, Green",[5]; [15],98
same,"Plant response rating, Foxtail, Green",[5]; [16],100
same,"Plant response rating, Foxtail, Green",[5]; [17],100
same,"Plant response rating, Foxtail, Green",[5]; [18],0
same,"Plant response rating, Foxtail, Green",[5]; [19],0
same,"Plant response rating, Foxtail, Green",[5]; [20],75
same,"Foxtail, Green plant response rating",[5]; [21],100
same,"Plant response rating, Crabgrass, Large",[6]; [14],80
same,"Plant response rating, Crabgrass, Large",[6]; [15],100
same,"Plant response rating, Crabgrass, Large",[6]; [16],100
same,"Plant response rating, Crabgrass, Large",[6]; [17],100
same,"Plant response rating, Crabgrass, Large",[6]; [18],60
same,"Plant response rating, Crabgrass, Large",[6]; [19],100
same,"Plant response rating, Crabgrass, Large",[6]; [20],100
same,"Crabgrass, Large plant response rating",[6]; [21],100
same,"Plant response rating, Cupgrass, Woolly",[7]; [14],100
same,"Plant response rating, Cupgrass, Woolly",[7]; [15],100
same,"Plant response rating, Cupgrass, Woolly",[7]; [16],100
same,"Plant response rating, Cupgrass, Woolly",[7]; [17],100
same,"Plant response rating, Cupgrass, Woolly",[7]; [18],50
same,"Plant response rating, Cupgrass, Woolly",[7]; [19],70
same,"Plant response rating, Cupgrass, Woolly",[7]; [20],80
same,"Cupgrass, Woolly plant response rating",[7]; [21],100
same,"Plant response rating, Morningglory",[8]; [14],90
same,"Plant response rating, Morningglory",[8]; [15],100
same,"Plant response rating, Morningglory",[8]; [16],100
same,"Plant response rating, Morningglory",[8]; [17],100
same,"Plant response rating, Morningglory",[8]; [18],0
same,"Plant response rating, Morningglory",[8]; [19],0
same,"Plant response rating, Morningglory",[8]; [20],65
same,Morningglory plant response rating,[8]; [21],100
same,"Plant response rating, Bromegrass, Downy",[9]; [14],60
same,"Plant response rating, Bromegrass, Downy",[9]; [15],95
same,"Plant response rating, Bromegrass, Downy",[9]; [16],95
same,"Plant response rating, Bromegrass, Downy",[9]; [17],95
same,"Plant response rating, Bromegrass, Downy",[9]; [18],0
same,"Plant response rating, Bromegrass, Downy",[9]; [19],0
same,"Plant response rating, Bromegrass, Downy",[9]; [20],0
same,"Bromegrass, Downy plant response rating",[9]; [21],15
same,"Plant response rating, Bermudagrass",[10]; [14],80
same,"Plant response rating, Bermudagrass",[10]; [15],100
same,"Plant response rating, Bermudagrass",[10]; [16],100
same,"Plant response rating, Bermudagrass",[10]; [17],100
same,"Plant response rating, Bermudagrass",[10]; [18],98
same,"Plant response rating, Bermudagrass",[10]; [19],100
same,"Plant response rating, Bermudagrass",[10]; [20],100
same,Bermudagrass plant response rating,"[10]; Preemergence, 250 g ai/ha, 0 to 100 scale, 0 no effect, 100 complete control",100
same,"Plant response rating, Nutsedge, Yellow",[11]; [14],40
same,"Plant response rating, Nutsedge, Yellow",[11]; [15],45
same,"Plant response rating, Nutsedge, Yellow",[11]; [16],70
same,"Plant response rating, Nutsedge, Yellow",[11]; [17],75
same,"Plant response rating, Nutsedge, Yellow",[11]; [18],0
same,"Plant response rating, Nutsedge, Yellow",[11]; [19],0
same,"Plant response rating, Nutsedge, Yellow",[11]; [20],65
same,"Nutsedge, Yellow plant response rating",[11]; [21],80
same,"Plant response rating, Foxtail, Giant",[12]; [14],98
same,"Plant response rating, Foxtail, Giant",[12]; [15],100
same,"Plant response rating, Foxtail, Giant",[12]; [16],100
same,"Plant response rating, Foxtail, Giant",[12]; [17],100
same,"Plant response rating, Foxtail, Giant",[12]; [18],0
same,"Plant response rating, Foxtail, Giant",[12]; [19],10
same,"Plant response rating, Foxtail, Giant",[12]; [20],90
same,"Foxtail, Giant plant response rating",[12]; [21],100
same,"Plant response rating, Corn",[13]; [14],100
same,"Plant response rating, Corn",[13]; [15],100
same,"Plant response rating, Corn",[13]; [16],100
same,"Plant response rating, Corn",[13]; [17],100
same,"Plant response rating, Corn",[13]; [18],0
same,"Plant response rating, Corn",[13]; [19],5
same,"Plant response rating, Corn",[13]; [20],25
same,Corn plant response rating,[13]; [21],65
CC(C)n1c(-c2ccccc2)ncc(C(=O)C2=C(O)CCCC2=O)c1=O [Compound 95],"Plant response rating, Ragweed",[1]; [22],75
same,Ragweed plant response rating (0 to 100 scale),[1]; [23],80
same,"Plant response rating, Ragweed",[1]; [24],95
same,"Plant response rating, Ryegrass, Italian",[2]; [22],0
same,"Ryegrass, Italian plant response rating (0 to 100 scale)",[2]; [23],0
same,"Plant response rating, Ryegrass, Italian",[2]; [24],0
same,"Plant response rating, Johnsongrass",[3]; [22],5
same,Johnsongrass plant response rating (0 to 100 scale),[3]; [23],10
same,"Plant response rating, Johnsongrass",[3]; [24],45
same,"Plant response rating, Goosegrass",[4]; [22],65
same,Goosegrass plant response rating (0 to 100 scale),[4]; [23],75
same,"Plant response rating, Goosegrass",[4]; [24],90
same,"Plant response rating, Foxtail, Green",[5]; [22],20
same,"Foxtail, Green plant response rating (0 to 100 scale)",[5]; [23],50
same,"Plant response rating, Foxtail, Green",[5]; [24],90
same,"Plant response rating, Crabgrass, Large",[6]; [22],45
same,"Crabgrass, Large plant response rating (0 to 100 scale)",[6]; [23],65
same,"Plant response rating, Crabgrass, Large",[6]; [25],75
same,"Plant response rating, Crabgrass, Large",[6]; [24],80
same,"Plant response rating, Cupgrass, Woolly",[7]; [22],45
same,"Cupgrass, Woolly plant response rating (0 to 100 scale)",[7]; [23],55
same,"Plant response rating, Cupgrass, Woolly",[7]; [25],65
same,"Plant response rating, Cupgrass, Woolly",[7]; [24],65
same,"Plant response rating, Morningglory",[8]; [22],100
same,Morningglory plant response rating (0 to 100 scale),[8]; [23],100
same,"Plant response rating, Morningglory",[8]; [24],100
same,"Plant response rating, Bromegrass, Downy",[9]; [22],0
same,"Bromegrass, Downy plant response rating (0 to 100 scale)",[9]; [23],0
same,"Plant response rating, Bromegrass, Downy",[9]; [25],0
same,"Plant response rating, Bromegrass, Downy",[9]; [24],0
same,"Plant response rating, Bermudagrass",[10]; [22],45
same,Bermudagrass plant response rating (0 to 100 scale),[10]; [23],75
same,"Plant response rating, Bermudagrass",[10]; [25],75
same,"Plant response rating, Bermudagrass",[10]; [24],90
same,"Plant response rating, Nutsedge, Yellow",[11]; [22],75
same,"Nutsedge, Yellow plant response rating (0 to 100 scale)",[11]; [23],75
same,"Plant response rating, Nutsedge, Yellow",[11]; [24],85
same,"Plant response rating, Foxtail, Giant",[12]; [22],45
same,"Foxtail, Giant plant response rating (0 to 100 scale)",[12]; [23],65
same,"Plant response rating, Foxtail, Giant",[12]; [24],85
same,"Plant response rating, Corn",[13]; [22],0
same,Corn plant response rating (0 to 100 scale),[13]; [23],0
same,"Plant response rating, Corn",[13]; [25],25
same,"Plant response rating, Corn",[13]; [24],35

# From US8952024B2, “Herbicidal pyrimidone derivatives” (E I du Pont de Nemours and Company, priority 2009, dated 2015)
